Source: patent US10047105B2, “Gyrase inhibitors” (Merck Sharp & Dohme Corp., priority 2009, dated 2018)

Experiments:
S. aureus ATCC 13709 = experiment: MIC, antibacterial potency, S. aureus; type: cell-based; details: S. aureus (SA); in µg/mL
S. pneumoniae ATCC 51916 = experiment: MIC, S. pneumoniae; type: cell-based; details: S. pneumoniae (Spn52); in µg/mL

MIC, SA (S. aureus ATCC 13709) | MIC Spn52 (S. pneumoniae ATCC 51916) | SMILES
4 | 4 | CCc1[nH]c2nc(Sc3cc(F)cc4nc(C)nc(N)c34)nc(N3CC[C@@H](N)C3)c2c1Cl [700,864]
1 | <=0.5 | CCc1[nH]c2nc(Sc3cc(Cl)c4c(N)nc(C)nc4c3)nc(N3CC[C@@H](N)C3)c2c1Cl [700,865]
1 | 8 | CCc1[nH]c2nc(Oc3cncnc3)nc(N(C)C)c2c1Br [700,866]
<=0.5 | 1 | CCc1[nH]c2nc(Sc3cnc4cccnc4c3)nc(N3CC(Cc4cncnc4)C3)c2c1Cl [700,867]
>64 | >64 | CCc1[nH]c2nc(Sc3cnc4nccnc4c3)nc(N3C[C@H](N)C[C@@H]3CO)c2c1Cl [700,868]
2 | 4 | CCc1[nH]c2nc(Sc3cnc4cccnc4c3)nc(N3CC(N)C4(CC4)C3)c2c1Cl (centres unmarked) [700,869]
64 | 64 | CCc1[nH]c2nc(Sc3cnc4cccnc4c3)nc(N3C[C@H](N)C[C@@H]3CO)c2c1Cl [700,870]
<=0.5 | 2 | CCc1[nH]c2nc(Sc3cnc4cccnc4c3)nc(N3CCC(c4cccnc4)C3)c2c1Cl (centres unmarked) [700,871]
1 | 2 | CCc1[nH]c2nc(Sc3cnc4cccnc4c3)nc(N3C[C@@H](N)[C@H](c4ccccc4)C3)c2c1Cl [700,872]
2 | 32 | CCc1[nH]c2nc(Sc3cnc4cccnc4c3)nc(N3C[C@@H](N)[C@@H](C(=O)OC)C3)c2c1Cl [700,873]
2 | 8 | CCc1[nH]c2nc(Oc3cccc(C#N)c3)nc(C3CC3)c2c1Cl [700,874]
32 | >32 | CCc1[nH]c2nc(Cc3cccnc3)nc(Oc3cccc(C#N)c3)c2c1Cl [700,875]
8 | 8 | CCc1[nH]c2nc(Sc3cnc4cccnc4c3)nc(N3CC(C(=O)N4CC(N)C4)C3)c2c1Cl [700,876]
4 | 8 | CCc1[nH]c2nc(Oc3cncnc3)nc(N3CC(N)C3)c2c1Br [700,877]
<=0.5 | <=0.5 | CCc1[nH]c2nc(Oc3cncnc3)nc(Oc3cncc(C#N)c3)c2c1Br [700,878]
<=0.5 | <=0.5 | CCc1[nH]c2nc(Oc3cnc4ccoc4c3)nc(Oc3cnc4ccoc4c3)c2c1Br [700,883]
4 | 16 | CCc1[nH]c2nc(Sc3cnc4nccnc4c3)nc(N3C[C@@H]4[C@H](C3)[C@@]4(N)CN)c2c1Cl [700,884]
2 | 4 | CCc1[nH]c2nc(Sc3cnc4cccnc4c3)nc(N3C[C@@H]4[C@H](C3)[C@@]4(N)CN)c2c1Cl [700,885]
>8 | 8 | CCc1[nH]c2nc(Sc3cnc4nccnc4c3)nc(N3CC4C(C3)C4(CN)NCc3ccccc3)c2c1Cl (centres unmarked) [700,886]
8 | 4 | CCc1[nH]c2nc(Sc3cnc4cccnc4c3)nc(N3CC4C(C3)C4(CN)NCc3ccccc3)c2c1Cl (centres unmarked) [700,887]
>64 | >64 | CCc1[nH]c2nc(Sc3cnc4cccnc4c3)nc(N3CCC(N)(C(=O)N[C@H]4CCOC4=O)C3)c2c1Cl (some centres unmarked) [700,888]

Further lines, the compound ahead of its results:

SMILES | MIC, SA (S. aureus ATCC 13709) | MIC Spn52 (S. pneumoniae ATCC 51916)
CCc1[nH]c2nc(Sc3cnc4c(N)nc(CN5CCC(N)CC5)nc4c3)nc(N3CC[C@@H](N)C3)c2c1Cl [700,827] | 4 | 32
CCc1[nH]c2nc(Oc3cncc(C#N)c3)nc(Oc3cccc(C(=O)O)c3)c2c1Cl [700,828] | >64 | >64
CCc1[nH]c2nc(Sc3cnc4nccnc4c3)nc(N3CCC(CN)CC3)c2c1Cl [700,829] | 16 | 32
CCc1[nH]c2nc(Sc3cnc4nccnc4c3)nc(N3CCC(CO)C3)c2c1Cl (centres unmarked) [700,830] | <=0.5 | 2
C=Cc1nc(Oc2cccc(C#N)c2)nc2[nH]c(CC)c(Cl)c12 [700,831] | 2 | 4
C=CCc1nc(Oc2ccc(Cl)c(C#N)c2)nc2[nH]c(CC)c(Cl)c12 [700,832] | 4 | >8
CCc1[nH]c2nc(Sc3cnc4nccnc4c3)nc(Oc3cccc(C#N)c3)c2c1Cl [700,833] | <=0.5 | 2
CCc1[nH]c2nc(Sc3cnc4nccnc4c3)nc(Oc3ccc(OC)c(C#N)c3)c2c1Cl [700,834] | 1 | 8
CCc1[nH]c2nc(Sc3ccc4cc5c(nc4c3)CCNC5)nc(N3CC[C@@H](N)C3)c2c1Cl [700,841] | 4 | 8
CCc1[nH]c2nc(Sc3cnc4nccnc4c3)nc(N3CC(NC(=O)C4CNC4)C3)c2c1Cl [700,842] | 4 | >64
CCc1[nH]c2nc(Sc3ccc4c(N5CC[C@@H](N)C5)cc(C)nc4c3)nc(N3CC[C@@H](N)C3)c2c1Cl [700,843] | 64 | >64
CCc1[nH]c2nc(Sc3ccc4nnc(C(=O)NCCN5CCCC5)nc4c3)nc(N3CC[C@@H](N)C3)c2c1Cl [700,844] | 64 | 32
CCc1[nH]c2nc(Sc3ccc4nnc(C(=O)NCC5CCNCC5)nc4c3)nc(N3CC[C@@H](N)C3)c2c1Cl [700,845] | >64 | >64
CCc1[nH]c2nc(Sc3ccc4c(N)nc(CN5CCC(N)CC5)nc4c3)nc(N3CC[C@@H](N)C3)c2c1Cl [700,846] | >64 | >64
CCc1[nH]c2nc(Sc3ccc4c(N)nc(CN5CCNCC5)nc4c3)nc(N3CC[C@@H](N)C3)c2c1Cl [700,847] | >64 | >64
CCc1[nH]c2nc(Sc3cc(F)cc(F)c3C#N)nc(N3CC[C@@H](N)C3)c2c1Cl [700,848] | 64 | 64
CCc1[nH]c2nc(Sc3ccc4c(N)n[nH]c4c3)nc(N3CC(N)C3)c2c1Cl [700,850] | 64 | >64
CCc1[nH]c2nc(Sc3cnc4nccnc4c3)nc(N3CCC(c4cccnc4)C3)c2c1Cl (centres unmarked) [700,851] | <=0.5 | 4
CCc1[nH]c2nc(Sc3cnc4cccnc4c3)nc(N3CC4CC3CC4N)c2c1Cl (centres unmarked) [700,857] | 1 | 1
CCc1[nH]c2nc(Sc3cnc4nccnc4c3)nc(N3CC(CNC(=O)C4CNC4)C3)c2c1Cl [700,858] | 8 | >64
CCc1[nH]c2nc(Sc3ccc4cc(C(=O)O)c(C(=O)O)nc4c3)nc(N3CC[C@@H](N)C3)c2c1Cl [700,859] | 32 | >64
CCc1[nH]c2nc(Sc3ccc4c(N5CC(C6(N)CC6)C5)cc(C(=O)O)nc4c3)nc(N3CC[C@@H](N)C3)c2c1Cl [700,860] | >64 | >64
CCc1[nH]c2nc(Sc3ccc4cc5c(=O)[nH][nH]c(=O)c5nc4c3)nc(N3CC[C@@H](N)C3)c2c1Cl [700,861] | 16 | >64
CCc1[nH]c2nc(Sc3ccc4nc(C)cc(C(N)=O)c4c3)nc(C3CC[C@@H](N)C3)c2c1Cl (some centres unmarked) [700,862] | >64 | 32
CCc1[nH]c2nc(Sc3cc(OC)c4c(N)nc(C)nc4c3)nc(N3CC[C@@H](N)C3)c2c1Cl [700,863] | 8 | 8
